Earlier results in publication PMC3066546, “Development of modified nucleosides that have supremely high anti-HIV activity and low toxicity and prevent the emergence of resistant HIV mutants” (Proceedings of the Japan Academy. Series B, Physical and …, 2011).
Like-named read-outs stand apart in the source and are kept apart here. Blank lines part the entries; values can stand above or below the molecule they belong to.

Columns and labels:
[1] = CEM cells, MT4 cells, MAGI-CCR5 cells
[2] = tested on: RT of the M184V mutant; set-up: method as in PMID 15456247; conditions: 4′EddCTP compared with RT of wild-type HIV
[3] = tested on: HIV-1LAI; conditions: MTT assay, MT-4 cells
[4] = tested on: other cells
[5] = tested on: MT-4 cells
[6] = tested on: HXB2 (wild type HIV); set-up: method as in PMID 11087576, PMID 11577734, PMID 15200030; conditions: MAGI assay
[7] = target: Y181C (non-nucleoside reverse transcriptase inhibitor-resistant); set-up: method as in PMID 11087576, PMID 11577734, PMID 15200030; conditions: MAGI assay
[8] = tested on: MDR (multidrug-resistant HIV); conditions: MAGI assay
[9] = tested on: L74V drug-resistant HIV; set-up: method as in PMID 11087576, PMID 11577734, PMID 15200030; conditions: MAGI assay
[10] = tested on: M184I drug-resistant HIV; set-up: method as in PMID 11087576, PMID 11577734, PMID 15200030; conditions: MAGI assay
[11] = tested on: M184V drug-resistant HIV; set-up: method as in PMID 11087576, PMID 11577734, PMID 15200030; conditions: MAGI assay
[12] = tested on: KH65R drug-resistant HIV; set-up: method as in PMID 11087576, PMID 11577734, PMID 15200030; conditions: MAGI assay
[13] = tested on: 41/215 drug-resistant HIV; set-up: method as in PMID 11087576, PMID 11577734, PMID 15200030; conditions: MAGI assay
[14] = tested on: 41/69/ 125/SG drug-resistant HIV; set-up: method as in PMID 11087576, PMID 11577734, PMID 15200030; conditions: MAGI assay
[15] = tested on: Hela cells
[16] = tested on: HIV-1 Wild-type; set-up: method as in PMID 563233, PMID 17548498, PMID 18487070; conditions: Table 6
[17] = tested on: HIVs isolated from seven heavily drug-experienced patients; set-up: method as in PMID 11302824, PMID 12455229, PMID 15457679; conditions: seven heavily drug-experienced AIDS patients, as efficiently as against wild-type HIV
[18] = tested on: adenosine deaminase; conditions: 4′EdA to 4′EdI, 4′Ed2AA to 4′EdG
[19] = tested on: ICR mice; conditions: for Mortality (%): six-week-old ICR male mice
[20] = Table 6
[21] = tested on: adenosine deaminase; set-up: method as in PMID 563233, PMID 17548498, PMID 18487070
[22] = tested on: recombinant rat DNA polymerase β; set-up: method as in earlier work; conditions: recombinant rat enzyme
[23] = tested on: calf thymus DNA polymerase α; set-up: method as in earlier work; conditions: calf thymus enzyme
[24] = tested on: HIV-1MDR; set-up: method as in PMID 18487070; conditions: Table 7; read-out: Anti-HIV activity (MAGI assay, µg) HIV-1MDR
[25] = tested on: HIV-1M184V; set-up: method as in PMID 18487070; conditions: Table 7; read-out: Anti-HIV activity (MAGI assay, µg) HIV-1M184V
[26] = tested on: HIV-1wild; set-up: method as in PMID 18487070; conditions: Table 7; read-out: Anti-HIV activity (MAGI assay, µg) HIV-1wild
[27] = tested on: HIV; set-up: method as in PMID 7764216; conditions: Table 1; for EC50: anti-HIV
[28] = tested on: HIV-1 M184V; set-up: method as in PMID 563233, PMID 17548498, PMID 18487070; conditions: Table 6
[29] = cytotoxic concentration, Table 1
[30] = set-up: method as in PMID 563233, PMID 17548498, PMID 18487070; conditions: acidic conditions of gastric juices (pH 1.06), 24 ℃
[31] = target: human mitochondrion DNA polymerase (DNA polymerase γ); set-up: method as in PMID 17548498, PMID 18487070; conditions: read-out: EC50 to inhibit the incorporation of dATP
[32] = intraveneous administration, 1 mg/Kg
[33] = intraveneous administration, 3 mg/Kg
[34] = intraveneous administration, 10 mg/Kg
[35] = intraveneous administration, 100 mg/Kg

Molecule: 3′-azido-3′-deoxythymidine-5′-O-phosphate [AZTTP, reference compound]
intracellular half-life (T1/2) [1]: 3 h

Molecule: C#CC1(COP(=O)(O)OP(=O)(O)OP(=O)(O)O)CCC(n2ccc(N)nc2=O)O1 (single isomer, unassigned) [L-isomer of 4′EddCTP]
activity against RT of the M184V mutant [2]: not active

EC50 ([3]; Table 2): 0.03 µM
Molecule: C#C[C@]1(CO)O[C@@H](n2cc(F)c(N)nc2=O)C[C@@H]1O [4′-C-ethynyl-2′-deoxy-5-fluorocytidine]
toxicity with other cells [4]: toxic
CC50 ([5]; Table 2): > 100 µM

Molecule: C#C[C@]1(CO)O[C@@H](n2ccc(N)nc2=O)[C@@H](O)[C@@H]1O [4′EaraC, 4′-C-ethynyl D-arabino-furanosyl cytosine]
EC50 ([3]; Table 2): 0.043 µM
EC50 [6]: 0.0071 µM
EC50 [7]: 0.016 µM
EC50 [8]: 0.0079 µM
EC50 [9]: 0.026 µM
CC50 ([5]; Table 2): 2 µM
EC50 [10]: 0.48 µM
EC50 [11]: 0.71 µM
EC50 [12]: 0.015 µM
EC50 [13]: 0.026 µM
EC50 [14]: 0.17 µM
CC50 ([15]; Table 4, Hela cells): > 200 µM

Molecule: C#C[C@]1(CO)O[C@@H](n2cnc3c(N)nc(N)nc32)C[C@@H]1O [4′Ed2AA, 2′-deoxy-4′-C-ethynyl-2-aminoadenosine]
EC50 [16]: 0.00034 µM
EC50 ([3]; Table 3): 0.0003 µM
potency against HIVs isolated from patients [17]: highly potent
EC50 [6]: 0.0014 µM
EC50 [7]: 0.0008 µM
conversion by adenosine deaminase in mice [18]: easily converted
EC50 [8]: 0.001 µM
EC50 [9]: 0.0007 µM
CC50 ([5]; Table 3): 0.82 µM
Mortality (%) [19, 32]: 0%
Mortality (%) [19, 33]: 0%
Mortality (%) [19, 34]: 100%
Mortality (%) [19, 35]: 100%
survival days of mice after administration ([19]; intraveneous, 10 mg/Kg): 2 days
survival days of mice after administration ([19]; intraveneous, 100 mg/Kg): 1 days
Mortality (%) ([19]; oral administration, 1 mg/Kg): 0%
Mortality (%) ([19]; oral administration, 3 mg/Kg): 100%
Mortality (%) ([19]; oral administration, 10 mg/Kg): 100%
Mortality (%) ([19]; oral administration, 100 mg/Kg): 100%
survival days of mice after administration ([19]; oral, 3 mg/Kg): 2 days
survival days of mice after administration ([19]; oral, 10 mg/Kg): 2 days
survival days of mice after administration ([19]; oral, 100 mg/Kg): 1 days
EC50 [10]: 0.0027 µM
EC50 [11]: 0.0059 µM
EC50 [12]: 0.00035 µM
EC50 [13]: 0.0017 µM
EC50 [14]: 0.0041 µM
CC50 [20]: 0.9 µM
CC50 ([15]; Table 4, Hela cells): > 200 µM

Molecule: C#C[C@]1(CO)O[C@@H](n2cnc3c(N)ncnc32)C[C@@H]1O [4′EdA, 2′-deoxy-4′-C-ethynyladenosine]
EC50 ([3]; Table 2): 0.0098 µM
potency against HIVs isolated from patients [17]: highly potent
EC50 [6]: 0.008 µM
EC50 [7]: 0.011 µM
conversion by adenosine deaminase in mice [18]: easily converted to 4′EdI
time to complete deamination by adenosine deaminase [21]: 60 min
EC50 [8]: 0.0062 µM
EC50 [9]: 0.004 µM
CC50 ([5]; Table 2): 16 µM
CC50 ([5]; Table 3): 16 µM
Mortality (%) [19, 32]: 0%
Mortality (%) [19, 33]: 0%
Mortality (%) [19, 34]: 0%
Mortality (%) [19, 35]: 0%
Mortality (%) ([19]; oral administration, 1 mg/Kg): 0%
Mortality (%) ([19]; oral administration, 3 mg/Kg): 0%
Mortality (%) ([19]; oral administration, 10 mg/Kg): 0%
Mortality (%) ([19]; oral administration, 100 mg/Kg): 0%
survival of mice ([19]; single dosage of 3–100 mg kg−1, both intravenous and oral): All eight mice survived
EC50 [10]: 0.022 µM
EC50 [11]: 0.047 µM
EC50 [12]: 0.0033 µM
EC50 [13]: 0.012 µM
EC50 [14]: 0.065 µM
CC50 ([15]; Table 4, Hela cells): > 200 µM

Molecule: C#C[C@]1(CO)O[C@@H](n2ccc(N)nc2=O)C[C@@H]1O [4′EdC, 4′-C-ethynyl-2′-deoxycytidine]
EC50 ([3]; Table 2, listed as 4′-C-ethynyl-2′-deoxycytidine): 0.0048 µM
EC50 [6]: 0.0012 µM
EC50 [7]: 0.0021 µM
EC50 [9]: 0.0013 µM
EC50 [10]: 0.0026 µM
EC50 [11]: 0.0024 µM
EC50 [12]: 0.0008 µM
EC50 [13]: 0.006 µM
EC50 [14]: 0.015 µM

Molecule: C#C[C@]1(CO)O[C@@H](n2cnc3c(=O)[nH]c(N)nc32)C[C@@H]1O [4′EdG, 2′-deoxy-4′-C-ethynylguanosine]
EC50 ([3]; Table 3): 0.0014 µM
potency against HIVs isolated from patients [17]: highly potent
EC50 [6]: 0.007 µM
EC50 [7]: 0.01 µM
EC50 [8]: 0.0048 µM
EC50 [9]: 0.0012 µM
CC50 ([5]; Table 3): 1.5 µM
Mortality (%) [19, 32]: 0%
Mortality (%) [19, 33]: 100%
Mortality (%) [19, 34]: 100%
Mortality (%) [19, 35]: 100%
survival days of mice after administration ([19]; intraveneous, 3 mg/Kg): 4 days
survival days of mice after administration ([19]; intraveneous, 10 mg/Kg): 2 days
survival days of mice after administration ([19]; intraveneous, 100 mg/Kg): 1 days
Mortality (%) ([19]; oral administration, 1 mg/Kg): 0%
Mortality (%) ([19]; oral administration, 3 mg/Kg): 100%
Mortality (%) ([19]; oral administration, 10 mg/Kg): 100%
Mortality (%) ([19]; oral administration, 100 mg/Kg): 100%
survival days of mice after administration ([19]; oral, 3 mg/Kg): 4 days
survival days of mice after administration ([19]; oral, 10 mg/Kg): 4 days
survival days of mice after administration ([19]; oral, 100 mg/Kg): 1 days
EC50 [10]: 0.0041 µM
EC50 [11]: 0.008 µM
EC50 [12]: 0.001 µM
EC50 [13]: 0.019 µM
EC50 [14]: 0.0068 µM
CC50 ([15]; Table 4, Hela cells): 52 µM

chain termination of DNA polymerase β [22]: chain terminator
Molecule: CC1(COP(=O)(O)OP(=O)(O)OP(=O)(O)O)OC(n2ccc(N)nc2=O)C(O)C1O (stereo not drawn) [4′MAraCTP]
chain termination of DNA polymerase α [23]: chain terminator

chain termination of DNA polymerase β [22]: chain terminator
Molecule: CC1(COP(=O)(O)OP(=O)(O)OP(=O)(O)O)OC(n2ccc(N)nc2=O)CC1O (stereo not drawn) [4′MdCTP]
chain termination of DNA polymerase α [23]: chain terminator

Molecule: Cc1cn([C@H]2C[C@H](N=[N+]=[N-])[C@@H](CO)O2)c(=O)[nH]c1=O [AZT, 3′-azido-3′-deoxythymidine, reference compound]
EC50 [24]: 74.3 µM
EC50 [16]: 0.0032 µM
EC50 ([3]; Table 2): 0.0032 µM
EC50 ([3]; Table 3): 0.0032 µM
EC50 [6]: 0.022 µM
EC50 [7]: 0.014 µM
EC50 [25]: 0.13 µM
EC50 [8]: 15.3 µM
EC50 [9]: 0.02 µM
CC50 [5]: 29.4 µM
EC50 [26]: 0.17 µM
EC50 [10]: 0.017 µM
EC50 [11]: 0.01 µM
EC50 [27]: 0.001 µM
EC50 [12]: 0.02 µM
EC50 [28]: 0.016 µM
EC50 [13]: 0.3 µM
EC50 [14]: 1.6 µM
CC50 [15]: > 100 µM

Molecule: Nc1ncnc2c1ncn2[C@H]1CC[C@@H](CO)O1 [ddA, 2′,3′-dideoxyadenosine, reference compound]
CC50 [29]: > 500 µM
SI (CC50/EC50) [27]: >11
EC50 [27]: 47 µM
time to complete decomposition [30]: 5 min

EC50 [31]: 0.2 µM
Molecule: Nc1ncnc2c1ncn2[C@H]1CC[C@@H](CO[P@@](=O)(O)O[P@](=O)(O)OP(=O)(O)O)O1 [ddATP, 2′,3′-dideoxyadenosine-5-O-triphosphate, reference compound]
